For assay [1], the target named is T1, Cyclin-dependent kinase 2 (Homo sapiens, UniProt P24941). The assay is described as follows: Inhibition of CDK2.
Assay [2] concerns the target T1, Cyclin-dependent kinase 2. The assay is described as follows: Inhibition of CDK2 at 50 uM.
Assay [3] concerns the target Cyclin-dependent kinase 4 (Homo sapiens, UniProt P11802). Put plainly: Inhibition of CDK4.
The nature of assay [4]: Inhibition of MAPK.
Another assay deals with T2, Aurora kinase A (Homo sapiens, UniProt O14965).
T2 sequence (O14965 whole entry): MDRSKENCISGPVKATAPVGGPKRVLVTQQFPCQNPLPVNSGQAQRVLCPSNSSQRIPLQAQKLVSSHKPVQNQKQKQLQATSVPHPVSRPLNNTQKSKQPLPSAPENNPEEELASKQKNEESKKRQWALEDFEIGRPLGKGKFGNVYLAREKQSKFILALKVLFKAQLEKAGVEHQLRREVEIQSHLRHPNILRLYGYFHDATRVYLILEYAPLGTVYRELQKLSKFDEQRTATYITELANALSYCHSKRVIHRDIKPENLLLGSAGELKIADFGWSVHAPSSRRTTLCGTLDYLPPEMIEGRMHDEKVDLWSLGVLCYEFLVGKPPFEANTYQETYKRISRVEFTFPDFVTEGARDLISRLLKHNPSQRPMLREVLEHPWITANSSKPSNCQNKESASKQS
Put plainly: Inhibition of AUR2.

In assay [5] the test system is MCF7. The assay is described as follows: Antiproliferative activity against human MCF7 cells by clonogenicity assay. Type of assay: functional, cell-based.
Assay [6] has as its target Cyclin-dependent kinase 1 (Homo sapiens, UniProt P06493). Put plainly: Inhibition of CDC2.
For assay [7], the system named is MCF7. The assay is described as follows: Antiproliferative activity against human MCF7 cells by soft agar growth assay. Format: functional, cell-based.

Active and inactive are the calls of the source. No cut-off for these calls is given here.

One may read the IC50 as the concentration that inhibits the measured activity by half.

Chain of Cyclin-dependent kinase 1 (P06493 whole entry): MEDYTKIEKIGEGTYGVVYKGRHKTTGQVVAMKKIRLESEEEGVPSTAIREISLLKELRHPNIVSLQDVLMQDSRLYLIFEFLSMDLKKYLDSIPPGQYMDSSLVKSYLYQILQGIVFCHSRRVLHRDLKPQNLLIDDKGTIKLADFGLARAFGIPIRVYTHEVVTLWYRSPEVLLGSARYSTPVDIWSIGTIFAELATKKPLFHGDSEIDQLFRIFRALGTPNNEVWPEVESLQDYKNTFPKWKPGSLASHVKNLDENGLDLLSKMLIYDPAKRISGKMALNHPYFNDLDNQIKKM
Chain of Cyclin-dependent kinase 4 (P11802 whole entry): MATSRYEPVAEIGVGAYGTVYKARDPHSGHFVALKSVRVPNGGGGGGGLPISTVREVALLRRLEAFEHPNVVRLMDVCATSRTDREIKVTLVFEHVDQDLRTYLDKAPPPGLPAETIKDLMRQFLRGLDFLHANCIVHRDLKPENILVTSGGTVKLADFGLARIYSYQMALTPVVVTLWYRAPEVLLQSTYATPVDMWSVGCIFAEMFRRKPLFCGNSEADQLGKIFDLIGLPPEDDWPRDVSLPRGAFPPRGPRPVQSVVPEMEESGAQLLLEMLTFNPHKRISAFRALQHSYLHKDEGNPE

Regarding `COC1=C[C@]23CCN(C)[C@H](Cc4ccc(OC)c(O)c42)C3=CC1=O` [SALUTARIDINE], in assay [1], the IC50 is more than 50 µM.

Turning to `COc1ccc2c(cc3c4c(cc5c(c42)OCO5)C(=O)N3)c1OC`, the IC50 in assay [1] is more than 15 µM. Further, the outcome in assay [2] was inactive.

`O=C1Nc2cc3c(O)cccc3c3c(O)c(O)cc1c23`: the IC50 in assay [1] was more than 35 µM. Besides, the outcome in assay [2] was inactive.

For the molecule `O=C(O)c1cc(O)c(O)c2c1c([N+](=O)[O-])c(Cl)c1ccccc12`, the half-maximal inhibitory concentration (IC50) in assay [1] was 18 µM. Also, in assay [2], the result was inactive.

Regarding `COc1ccc2c(c1OC)CC1c3c(cc4c(c3-2)OCO4)CCN1C` (stereo unspecified) [CREBANINE], the 50% inhibitory concentration (IC50) in assay [1] is more than 50 µM.

As for `O=C1Nc2cc3c(O)cc(O)cc3c3c4c(cc1c23)OCO4`, the IC50 in assay [1] was more than 50 µM. Further, in assay [2], the outcome was inactive.

The molecule `O=C(O)c1cc2c(c3c1c([N+](=O)[O-])cc1ccc(O)cc13)OCO2` [ARISTOLOCHIC ACID C] had a half-maximal inhibitory concentration (IC50) in assay [1] of 30 µM. The outcome in assay [2] was inactive.

For the molecule `COc1ccc2c(c1OC)CN1CCc3cc4c(cc3C1C2)OCO4` (stereo unspecified) [TETRAHYDROBERBERINE], the IC50 in assay [1] is more than 50 µM.

In assay [1], `COc1cccc2c1cc1c3c(cc4c(c32)OCO4)C(=O)N1` [ARISTOLACTAM I] had a half-maximal inhibitory concentration (IC50) of 1.2 µM.

In turn, `COc1ccc2cc([N+](=O)[O-])c3c(C(=O)O)cc4c(c3c2c1)OCO4` came in with a concentration for half-maximal inhibition (IC50) in assay [1] of more than 20 µM. The result in assay [2] was inactive.

In assay [1], `COc1cccc2c1cc([N+](=O)[O-])c1c(C(=O)O)cc(O)c(O)c12` gave a half-inhibitory concentration (IC50) of more than 30 µM. In assay [2], the result was inactive.

For `COc1cccc2c1cc([N+](=O)[O-])c1c(C(=O)O)cc3c(c12)OCO3` [ARISTOLOCHIC ACID], the IC50 in assay [1] is more than 20 µM. Also, the result in assay [2] was inactive.

In the case of `O=C(O)c1cc(O)c(O)c2c1c([N+](=O)[O-])cc1c(O)cccc12`, 5.7 µM corresponded to half-maximal inhibition in assay [1] (IC50). Further, in assay [2], the result was inactive.

For `COc1c(O)ccc2c1cc1c3c(cc4c(c32)OCO4)C(=O)N1`, it took 2.9 µM to reach half-maximal inhibition in assay [1] (IC50).

Take `O=C1Nc2cc3ccc(O)cc3c3c4c(cc1c23)OCO4`: in assay [1], the IC50 was 2.15 µM.

Regarding `COc1cccc2c1cc1c3c(cc(O)c(O)c32)C(=O)N1`, the IC50 in assay [1] was more than 35 µM. Besides, the result in assay [2] was inactive.

For the molecule `O=C1Nc2cc3ccccc3c3c4c(cc1c23)OCO4` [ARISTOLACTAM II], the IC50 in assay [1] came out at 15 µM. Also, in assay [2], the result was inactive.

`O=C1Nc2cc3c(O)c(O)ccc3c3c4c(cc1c23)OCO4` came in with an IC50 in assay [1] of more than 30 µM. Also, the result in assay [2] was inactive.

As to `O=C1Nc2c(Cl)c3ccccc3c3c(O)c(O)cc1c23`, the IC50 in assay [1] was more than 25 µM. Further, the outcome in assay [2] was inactive.

As for `O=C(O)c1cc2c(c3c1c([N+](=O)[O-])cc1ccccc13)OCO2` [ARISTOLOCHIC ACID II], the IC50 in assay [1] is more than 20 µM. Besides, the result in assay [2] was inactive.

With `COc1c(O)ccc2c1cc([N+](=O)[O-])c1c(C(=O)O)cc3c(c12)OCO3` [7-HYDROXY ARISTOLOCHIC A], half-maximal inhibition in assay [1] (IC50) was put at 25 µM. Further, the outcome in assay [2] was inactive.

Take `COc1cc(O)cc2c1cc([N+](=O)[O-])c1c(C(=O)O)cc3c(c12)OCO3` [ARISTOLOCHIC D]: the IC50 in assay [1] came out at 25 µM. The result in assay [2] was inactive.

In assay [1], `CN1C(=O)c2cc3c(c4c2c1cc1c(O)cccc14)OCO3` returned an IC50 of more than 35 µM. In assay [2], the result was inactive.

For `COc1cccc2c1c(OC)c([N+](=O)[O-])c1c(C(=O)O)cc3c(c12)OCO3` [7-METHOXY ARISTOLOCHIC ACID A], the IC50 in assay [1] is more than 20 µM. For the same molecule, the outcome in assay [2] was inactive.

In the case of `COc1ccc2nc3[nH]nc(C)c3c(OC)c2c1`, the IC50 in assay [3] is 2 µM; in assay [4] it was more than 50 µM; against Aurora kinase A, 5 µM; in assay [1], 0.02 µM; with MCF7 [5], 3.5 µM; in assay [6] it was 0.2 µM. Moreover, the IC50 in the assay on MCF7 [7] was found to be 2 µM.

With `O=C(O)c1cc(O)c(O)c2c1c([N+](=O)[O-])cc1ccccc12`, in assay [1], the IC50 was 13.4 µM. In assay [2], the result was inactive.

In the case of `COc1cc(OC)c2cc3c4c(cc5c(c4c2c1)OCO5)C(=O)N3`, in assay [1], the IC50 was more than 15 µM. In addition, in assay [2], the result was inactive.

For `COc1cccc2c1c(Cl)c1c3c(cc(O)c(O)c32)C(=O)N1`, in assay [1], half-maximal inhibition (IC50) required 10 µM. The result in assay [2] was inactive.

In the case of `COc1cc(O)cc2c1cc1c3c(cc4c(c32)OCO4)C(=O)N1`, the IC50 in assay [1] is more than 35 µM. For the same molecule, the result in assay [2] was inactive.

With `O=C1Nc2cc3ccccc3c3c(O)c(O)cc1c23`, the IC50 in assay [1] was more than 35 µM. The result in assay [2] was inactive.

The molecule `COC1=C[C@@H]2[C@@H]3Cc4ccc(OC)c(O)c4[C@]2(CCN3C)CC1=O` [SINOMENINE] gave a 50% inhibitory concentration (IC50) in assay [1] of more than 50 µM.

Regarding `COc1c(O)cc2c3c(cc4ccc(O)cc4c13)NC2=O` [ARISTOLACTAM AIIIA], the half-maximal inhibitory concentration (IC50) in assay [3] was 2 µM; in assay [4], more than 50 µM; at Aurora kinase A it was 5 µM; in the assay on MCF7 [5], 3 µM; in assay [6], 0.2 µM; with MCF7 [7], more than 0.01 µM.

In the case of `O=C(O)c1cc2c(c3c1c([N+](=O)[O-])cc1c(O)cccc13)OCO2` [ARISTOLOCHIC ACID III], half-maximal inhibition in assay [1] (IC50) required 15 µM. For the same molecule, in assay [2], the result was inactive.

`COc1cc(OC)c2cc([N+](=O)[O-])c3c(C(=O)O)cc4c(c3c2c1)OCO4` [ARISTOLOCHIC ACID IV] yielded an IC50 in assay [1] of more than 20 µM. In addition, the result in assay [2] was inactive.

In assay [1], `COc1cccc2c1C[C@@H]1c3c(cc4c(c3-2)OCO4)CCN1C` [STEPHANINE] yielded a half-maximal inhibitory concentration (IC50) of more than 50 µM.

In the case of `COc1cccc2c1cc1c3c(cc4c(c32)OCO4)C(=O)N1C`, in assay [1], the IC50 is more than 35 µM. For the same molecule, the result in assay [2] was inactive.

`COc1ccc2c(c1O)-c1c(OC)c(OC)cc3c1[C@H](C2)N(C)CC3` [ISOCORYDINE] yielded an IC50 in assay [1] of more than 50 µM.

As to `O=C1Nc2cc3c(O)cccc3c3c4c(cc1c23)OCO4`, the IC50 stood at 1.42 µM in assay [3]; 35.3 µM in assay [4]; 2.14 µM against Aurora kinase A; 0.035 µM in assay [1]; 0.214 µM in assay [6]. Moreover, the result in assay [2] was inactive.

The molecule `COc1cc2c(cc1OC)-c1c3c(cc4c1[C@H](C2)N(C)CC4)OCO3` [DICENTRINE] returned an IC50 in assay [1] of more than 50 µM.

Regarding `CN1CCc2cc3c(c4c2[C@H]1Cc1ccccc1-4)OCO3` [ROEMERINE HBR], in assay [1], the 50% inhibitory concentration (IC50) is more than 50 µM.

The molecule `COc1ccc2c(c1O)-c1c(O)c(OC)cc3c1[C@H](C2)N(C)CC3` [CORYTUBERINE] returned an IC50 in assay [1] of more than 50 µM.

`COc1cccc2c1c(Cl)c([N+](=O)[O-])c1c(C(=O)O)cc(O)c(O)c12` yielded an IC50 in assay [1] of 16.5 µM. In addition, the outcome in assay [2] was inactive.

`COc1cc2c3c(c1O)-c1c(ccc(OC)c1OC)C[C@@H]3N(C)CC2` [CORYDINE]: the concentration for half-maximal inhibition (IC50) in assay [1] is more than 50 µM.
